Measured values: US20130053392A1, “CARBONIC ANHYDRASE INHIBITORS” (priority 2010, published 2013)
Entries after “also recorded” stand apart in the source; their conditions may differ. Like-named read-outs stand apart in the source and are kept apart here.

Key:
hCA I = target: T1, hCA I (Homo sapiens, UniProt P00915); test: CA-catalysed CO2 hydration stopped-flow inhibition assay, hCA I; type: biochemical
T1 construct: made in house
Description: (§1) Typically, CA inhibition is measured by assaying for CA-catalysed CO2 hydration activity using an appropriate indicator dye. […] Stopped flow spectrophotometry may used to measure the rate of hydration activity.
(§2) The uncatalyzed rates were determined in the same manner and subtracted from the total observed rates. Stock solutions of inhibitor (0.1 mM) were prepared in distilled-deionized water and dilutions up to 0.01 nM were done thereafter with distilled-deionized water Inhibitor and enzyme solutions were preincubated together for 15 min at room temperature in order to allow for the formation of the E-I complex. The inhibition constants were obtained by non-linear least-squares methods using PRISM 3, as reported earlier,^1,2,3 and represent the mean from at least three different determinations. All enzymes were recombinant ones, obtained as reported earlier.^2,3 • 1. Khalifah, R. G. The carbon dioxide hydration activity of carbonic anhydrase. I. Stop-flow kinetic studies on the native human isoenzymes B and C. […] Alterio, V.; Hilvo, M.; Di Fiore, A.; Supuran, C. T.; Pan, P.; Parkkila, S.; Scaloni, A.; Pastorek, J.; Pastorekova, S.; Pedone, C.; Scozzafava, A.; Monti, S. M.; De Simone, G. Crystal structure of the extracellular catalytic domain of the tumor-associated human carbonic anhydrase IX. […] T. Carbonic anhydrase inhibitors: X-ray and molecular modeling study for the interaction of a fluorescent antitumor sulfonamide with isozyme II and IX. J. Am. Chem. Soc. […] J. Am. Chem. Soc.

hCA II = target: T2, hCA II (Homo sapiens, UniProt P00918); test: CA-catalysed CO2 hydration stopped-flow inhibition assay, hCA II; type: biochemical
T2 construct: made in house
Description: as §1, §2

hCA IX = target: T3, hCA IX (Homo sapiens, UniProt Q16790); test: CA-catalysed CO2 hydration stopped-flow inhibition assay, hCA IX; type: biochemical
T3 construct: made in house
Description: as §1, §2

hCA XII = target: T4, hCA XII (Homo sapiens, UniProt O43570); test: CA-catalysed CO2 hydration stopped-flow inhibition assay, hCA XII; type: biochemical
T4 construct: made in house
T4 sequence (O43570 25-354): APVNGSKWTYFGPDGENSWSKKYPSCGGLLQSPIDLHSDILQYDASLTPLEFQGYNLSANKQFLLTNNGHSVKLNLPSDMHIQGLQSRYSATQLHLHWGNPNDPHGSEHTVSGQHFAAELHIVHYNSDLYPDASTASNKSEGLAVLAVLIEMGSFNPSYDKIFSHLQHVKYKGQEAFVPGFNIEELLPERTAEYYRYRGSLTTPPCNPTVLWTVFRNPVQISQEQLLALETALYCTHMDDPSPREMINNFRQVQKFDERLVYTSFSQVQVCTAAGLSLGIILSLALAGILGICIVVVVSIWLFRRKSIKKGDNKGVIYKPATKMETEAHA
Description: as §1, §2

[1] = tested on: EV/2 CA IX expressing cells (HT-29); test: FC11-489A bis binding, plate reader, EV/2 cells; type: cell-based, human; conditions: 100 μM
Text: (§3) Plates were placed in a BMG microplate reader FLUOstare Omega using following protocol: Fluorescence intensity—Well scanning using 5×5 scan matrix in a diameter of 10 mm with 10 flashes per scan point, a gain of 1000 and 355 nm-460 nm filter settings.

[2] = tested on: 94/1 CA IX knock down cells (HT-29); test: FC11-489A bis binding, plate reader, 94/1 cells; type: cell-based, human; conditions: 100 μM, normoxia, hypoxia, reoxygenation
Text: as §3

[3] = tested on: EV/2 CA IX expressing cells (HT-29); test: FC11-489A bis binding, fluorescence staining, EV/2 cells; type: cell-based, human; conditions: 100 μM
Description: (§4) Cells were mounted onto slides with Fluorescence Mounting Medium (DAKO) and analyzed with a Zeiss Axioskop fluorescence microscope using FIT-C filter settings.
(§5) Each staining picture was loaded into Image) analysis software (Image J 1.38x NIH USA, http://rsb.info.nih.gov/ij/Java 1.5.0—17), converted to 8-bit images, thresholded to exclude areas without cells and all remaining pixels were analyzed for their intensity.
(§6) For each oxygen condition, for at least 350 pixels fluorescence intensity was analyzed.

[4] = tested on: 94/1 CA IX knock down cells (HT-29); test: FC11-489A bis binding, fluorescence staining, 94/1 cells; type: cell-based, human; conditions: 100 μM, normoxia, hypoxia, reoxygenation, listed as FC11-489A bis
Description: as §4, §5, §6

[5] = tested on: EV/2 CA IX expressing cells (HT-29); test: FC11-489A bis binding, flow cytometer, EV/2 cells; conditions: 100 μM, FACS
Description: (§7) Single suspensions were obtained by passing cells through 70 μm nylon cell strainers (BD Biosciences). Mean fluorescence intensity was analyzed using a FACSort flow cytometer (BD Biosciences) using FIT-C filter settings.

[6] = tested on: 94/1 CA IX knock down cells (HT-29); test: FC11-489A bis binding, flow cytometer, 94/1 cells; conditions: 100 μM, normoxia, hypoxia, reoxygenation, FACS
Description: as §7

MDA-231 GFP cells = test: Cell migration (scratch wound) assay, MDA-231; type: cell-based; conditions: 33 μM preliminary screen, 24 h, MDA231, FIG. 7/8
Description: A cell migration assay was performed as follows. A coverslip was placed in a 3 cm dish and 0.5×10^6 cells (in 10% FCS-RPMI) was seeded, per 3 cm dish. The cells were left to grow for 24 hours so as to obtain a confluent layer of cells on the coverslip and a scratch was made with a pipette tip (p200) and loosely attached cells were washed off. The medium was replaced with a low serum (0.2% serum) medium to reduce the level of proliferation.
Cells were fixed in buffered formalin and scratches were imaged with ImageJ and the extent of wound closure was calculated.
A series of 11 compounds were assayed in scratch wound assays to evaluate the effect of CA-IX inhibition on cellular migration in air and hypoxia. […] Cells were then cultured in air or hypoxia and migration analysed 24 h later relative to vehicle treated controls.

[7] = Table 2, sulfamides 7 and 8, read-out: Ki hCAIX

T1 sequence (P00915 whole entry): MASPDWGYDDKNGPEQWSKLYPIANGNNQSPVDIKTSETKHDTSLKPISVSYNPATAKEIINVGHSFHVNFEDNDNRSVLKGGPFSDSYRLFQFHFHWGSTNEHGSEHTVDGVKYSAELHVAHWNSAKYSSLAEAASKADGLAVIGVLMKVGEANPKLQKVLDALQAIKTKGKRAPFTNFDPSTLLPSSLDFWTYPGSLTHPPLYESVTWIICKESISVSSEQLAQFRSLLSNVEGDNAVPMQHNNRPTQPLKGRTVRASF

SMILES	Ki (hCA I; Table 2, sulfamides 7 and 8)	Ki (hCA II; Table 2, sulfamides 7 and 8)	KiCAII/KiCAIX (hCA IX; Table 2, selectivity ratio)	Ki (hCA IX; [7])	Ki (hCA XII; Table 2, sulfamides 7 and 8)	further results
COc1ccc(NC(=O)Nc2ccc(NS(N)(=O)=O)cc2)c(C)c1 [Compound 7e]	3650 nM	313 nM	14.9	21 nM	36 nM	–
NS(=O)(=O)Nc1ccc(NC(=O)Nc2cccc([N+](=O)[O-])c2)cc1 [Compound 7d]	1980 nM	423 nM	26.4	16 nM	8 nM	–
COc1ccc(C)cc1NC(=O)Nc1ccc(NS(N)(=O)=O)cc1 [Compound 7f]	4300 nM	436 nM	10.9	40 nM	26 nM	–
NS(=O)(=O)Nc1ccc(NC(=O)NCc2ccco2)cc1 [Compound 7a]	6800 nM	345 nM	18.1	19 nM	12 nM	–
NS(=O)(=O)Oc1ccc(NC(=S)Nc2ccc(-c3c4ccc(=O)cc-4oc4cc(O)ccc34)c(C(=O)O)c2)cc1 [Compound 20, 2-(3-Hydroxy-6-oxo-6H-xanthen-9-yl)-5-(3-(4-(sulfamoyloxy)phenyl)thioureido)benzoic acid]	–	–	–	–	–	Ki (hCA IX; Table 3, stopped flow assay): 14 nM; binding upon reoxygenation versus hypoxic conditions ([1]; 24 h hypoxia then 1 h air): dramatically reduced; binding (fluorescence intensity), hypoxia versus normoxia ([1]; hypoxia 0.2% 24 h, FIG. 12): significant higher binding; binding at CA IX knock down cells [2]: No significant binding; binding upon reoxygenation ([3]; 24 h hypoxia then 1 h air, listed as FC11-489A bis): reduced upon reoxygenation to levels similar as normoxia exposure; also recorded: dramatically reduced; binding (immunofluorescence), hypoxia versus normoxia ([3]; hypoxia 0.2% 24 h, FIG. 14/15, listed as FC11-489A bis): significant higher binding; binding at CA IX knock down cells [4]: lower for all experimental conditions compared to the EV/2 cells; also recorded: No significant binding; binding upon reoxygenation versus hypoxic conditions ([5]; 24 h hypoxia then 1 h air): dramatically reduced; binding (mean fluorescence intensity), hypoxia versus normoxia ([5]; hypoxia 0.2% 24 h, FIG. 13): significant higher binding; binding at CA IX knock down cells [6]: No significant binding
NS(=O)(=O)Oc1ccc(NC(=O)NC23CC4CC(CC(C4)C2)C3)cc1 [Compound 3u, 4-[(1-adamantyl)ureido]phenyl sulfamate]	–	–	–	–	–	Ki (hCA I; Table 1, sulfamates 3): 43000 nM; Ki (hCA II; Table 1, sulfamates 3): 467 nM; KiCAII/KiCAIX (hCA IX; Table 1, selectivity ratio): 22.2; Ki (hCA IX; Table 1, sulfamates 3, read-out: Ki hCAIX): 21 nM; Ki (hCA XII; Table 1, sulfamates 3): 46 nM
NS(=O)(=O)Oc1ccc(NC(=O)Nc2c(F)c(F)c(F)c(F)c2F)cc1 [Compound 3i, 4-[(pentafluorophenyl)ureido]phenyl sulfamate]	–	–	–	–	–	cellular migration in air and hypoxia relative to vehicle (MDA-231 GFP cells): inhibitory effects against hypoxic cell migration at concentrations that had minimal effects in air
NS(=O)(=O)Nc1ccc(NC(=O)Nc2ccc(Cc3ccccc3)cc2)cc1 [Compound 7p]	2500 nM	146 nM	14.6	10 nM	8 nM	–
CC(=O)c1ccc(NC(=O)NCc2ccc(NS(N)(=O)=O)cc2)cc1 [Compound 8e]	3590 nM	138 nM	5.8	24 nM	14 nM	–
CN(C)c1ccc(NC(=O)NCc2ccc(NS(N)(=O)=O)cc2)cc1 [Compound 8f]	1340 nM	48 nM	4.0	12 nM	22 nM	–
COc1ccc(NC(=O)NCc2ccc(NS(N)(=O)=O)cc2)cc1 [Compound 8c]	2310 nM	365 nM	33.2	11 nM	13 nM	–
NS(=O)(=O)Nc1ccc(CNC(=O)Nc2ccc(F)cc2)cc1 [Compound 8d]	2840 nM	233 nM	23.3	10 nM	8 nM	–
NS(=O)(=O)Oc1ccc(NC(=O)Nc2ccc(Oc3ccccc3)cc2)cc1 [Compound 3h, 4-[(4-phenoxyphenyl)ureido]phenyl sulfamate]	–	–	–	–	–	cellular migration in air and hypoxia relative to vehicle (MDA-231 GFP cells): inhibitory effects against hypoxic cell migration at concentrations that had minimal effects in air
Cc1cc(C)cc(NC(=O)Nc2ccc(NS(N)(=O)=O)cc2)c1 [Compound 7b]	8400 nM	674 nM	67.4	10 nM	5 nM	–
NS(=O)(=O)Nc1ccc(NC(=O)Nc2ccccc2-c2ccccc2)cc1 [Compound 7i]	10500 nM	894 nM	6.1	145 nM	240 nM	–
